Measured values published in the supplement of paper PMC10307832.

Experiments:
Assay in all cases: relative viability (nuclei count vs DMSO), 5 days (fraction); higher = more cells survive
[1] = compound: Cc1nc(C(=O)NCC(=O)O)c(O)c2ccc(Oc3ccccc3)cc12 [FG-4592] + COc1cccc2cc(-c3nc([C@H]4CC[C@H](C(=O)O)CC4)n4ncnc(N)c34)[nH]c12 [OSI-027] (partner 0.5 µM)
How it was run: (§1)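 Dosing by pin tool came one day after lung cancer cell lines were seeded in 1536-well plates, using either one drug or a fixed anchor-drug dose plus five library-drug doses (not always all listed) in √10 steps. After 5 days, nuclei were counted on 4× images. Relative viability is treated-well nuclei count divided by vehicle-well nuclei count, and values are medians of duplicate plates.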

[2] = compound: Cc1nc(C(=O)NCC(=O)O)c(O)c2ccc(Oc3ccccc3)cc12 [FG-4592] + CC(=O)Nc1cccc(-n2c(=O)n(C3CC3)c(=O)c3c(Nc4ccc(I)cc4F)n(C)c(=O)c(C)c32)c1 [Trametinib] (partner 0.02 µM)
How it was run: as §1

[3] = compound: CC1=CC(=C(N1C2=CC=C(C=C2)Cl)C)C(=O)CN3CCCCC3 [IU1-47] + O=C(c1cc(Cc2n[nH]c(=O)c3ccccc23)ccc1F)N1CCN(C(=O)C2CC2)CC1 [Olaparib] (partner 8 µM)
How it was run: as §1

[4] = compound: Cc1nc(C(=O)NCC(=O)O)c(O)c2ccc(Oc3ccccc3)cc12 [FG-4592] + C[C@@H](Oc1cc(-c2cnn(C3CCNCC3)c2)cnc1N)c1c(Cl)ccc(F)c1Cl [Crizotinib] (partner 1 µM)
How it was run: as §1

Cell Line	relative viability ([1]; first compound 0.08 µM)	relative viability ([1]; first compound 0.253 µM)	relative viability ([1]; first compound 0.8 µM)	relative viability ([1]; first compound 2.53 µM)	relative viability ([1]; first compound 8 µM)	relative viability ([2]; first compound 0.08 µM)	relative viability ([2]; first compound 0.253 µM)	relative viability ([2]; first compound 0.8 µM)	relative viability ([2]; first compound 2.53 µM)	relative viability ([2]; first compound 8 µM)	relative viability ([3]; first compound 0.08 µM)	relative viability ([3]; first compound 0.253 µM)	relative viability ([3]; first compound 0.8 µM)	relative viability ([3]; first compound 2.53 µM)	relative viability ([3]; first compound 8 µM)	relative viability ([4]; first compound 0.08 µM)	relative viability ([4]; first compound 0.253 µM)	relative viability ([4]; first compound 0.8 µM)	relative viability ([4]; first compound 2.53 µM)	relative viability ([4]; first compound 8 µM)
NCI-H2342	0.594	0.648	0.631	0.585	0.57	0.755	0.841	0.746	0.738	0.641	0.49	0.432	0.463	0.425	0.418					
SK-MES-1	0.568	0.585	0.546	0.483	0.453	0.604	0.515	0.521	0.623	0.571	0.823	0.771	0.664	0.652	0.786	0.913	0.854	1	1.03	1
HCC-366	0.455	0.934	0.784	0.484	0.703	0.326	0.347	0.246	0.361	0.271	0.511	0.328	0.423	0.312	0.292	0.469	0.471	0.565	0.628	0.325
201T	0.683	0.662	0.738	0.815	0.704	0.691	0.695	0.719	0.772	0.708	0.829	0.869	0.854	0.838	0.666	1	1.01	1.05	1.02	0.974
HCC-827	0.677	0.727	0.8	0.669	0.593	0.495	0.491	0.48	0.532	0.506	0.617	0.694	0.631	0.683	0.648	0.92	0.892	0.923	1.02	0.869
NCI-H647	0.547	0.675	0.686	0.565	0.602	0.444	0.453	0.336	0.448	0.333	0.661	0.755	0.556	0.783	0.333	0.941	1.04	1.01	1.17	1.03
NCI-H2023	0.402	0.359	0.428	0.356	0.241	0.488	0.595	0.612	0.593	0.506	0.454	0.639	0.49	0.44	0.479	0.609	0.66	0.703	0.768	0.544
NCI-H520	0.234	0.285	0.286	0.257	0.205	0.594	0.557	0.573	0.719	0.473	0.32	0.391	0.269	0.349	0.309	0.731	0.652	0.932	0.758	0.586
RERF-LC-KJ	0.606	0.503	0.565	0.505	0.567	0.841	0.848	0.763	0.876	0.857	0.867	0.916	0.894	0.943	0.789	0.798	0.8	0.849	0.837	0.771
A-427	0.479	0.393	0.506	0.423	0.598	0.772	0.724	0.677	0.72	0.723	0.81	0.811	0.716	0.82	0.711	0.801	0.899	0.923	0.933	1.01
NCI-H441	0.589	0.537	0.621	0.465	0.563	0.497	0.433	0.401	0.3	0.497	0.61	0.591	0.511	0.543	0.539	0.582	0.646	0.916	0.72	0.632
NCI-H1703											0.387	0.39	0.447	0.355	0.487	0.591	0.572	0.702	0.44	0.733
NCI-H1792	0.803	0.69	0.794	0.575	0.735	0.429	0.435		0.414	0.375	0.659	0.481	0.365	0.384	0.215	0.96	0.764	0.812	1.01	0.975
Calu-6											0.618	0.566	0.586	0.617	0.616	0.753	0.811	0.855	0.832	0.707
SK-LU-1	0.3	0.177	0.349	0.345	0.239	0.402	0.395	0.461	0.422	0.379	0.663	0.444	0.462	0.55	0.388	0.806	0.731	0.912		0.968
PC-3 [JPC-3]	0.674	0.75	0.79	0.662	0.681	0.773	0.601		0.72	0.844	1.19	1.2	1.14	1.11	1.04	1	0.905	1.12	0.98	0.988
EMC-BAC-2	0.338	0.407	0.339	0.333	0.344	0.939	0.892		0.845	0.88	0.507	0.548	0.402	0.534	0.533	0.736	0.749	0.813	0.772	0.731
